Test results as given in PMC5218480 (PLoS ONE, 2017).

Tested on: MV-4-11 cells
Test: Gene expression microarray analysis (Affymetrix PrimeView) and GSEA
Format: cell-based, human
Set-up: RFU PODN (11730768_x_at) / Fold change /veh PODN (11730768_x_at) / RFU LINC00158 (11744669_a_at) / Fold change /veh LINC00158 (11744669_a_at) / RFU DUSP10 (11751237_a_at) / Fold change /veh DUSP10 (11751237_a_at) / RFU ID3 (11757404_x_at) / Fold change /veh ID3 (11757404_x_at) / RFU PLEKHG5 (11737974_s_at) / Fold change /veh PLEKHG5 (11737974_s_at) / RFU LRRC4B (11730491_at) / Fold change /veh LRRC4B (11730491_at) / RFU GIMAP4 (11747438_a_at) / Fold change /veh GIMAP4 (11747438_a_at) / RFU KRT8 (11758183_x_at) / Fold change /veh KRT8 (11758183_x_at) / RFU CNN1 (11734310_a_at) / Fold change /veh CNN1 (11734310_a_at) / RFU VPS37D (11726825_at) / Fold change /veh VPS37D (11726825_at) / RFU C10orf10 (11716522_x_at) / Fold change /veh C10orf10 (11716522_x_at) / RFU KIR2DL2 /// KIR2DL4 /// KIR2DL5A /// KIR2DL5B /// KIR2DS1 /// KIR2DS2 /// KIR2DS3 /// KIR2DS4 /// KIR3DL3 /// KIR3DL3 /// KIR3DS1 (11738374_at) / Fold change /veh KIR2DL2 /// KIR2DL4 /// KIR2DL5A /// KIR2DL5B /// KIR2DS1 /// KIR2DS2 /// KIR2DS3 /// KIR2DS4 /// KIR3DL3 /// KIR3DL3 /// KIR3DS1 (11738374_at) / RFU C1QL1 (11718748_at) / Fold change /veh C1QL1 (11718748_at) / RFU TMPRSS4 (11747572_a_at) / Fold change /veh TMPRSS4 (11747572_a_at) / RFU HAMP (11756126_x_at) / Fold change /veh HAMP (11756126_x_at) / RFU RNFT2 (11725882_a_at) / Fold change /veh RNFT2 (11725882_a_at) / RFU NR4A2 (11747474_a_at) / Fold change /veh NR4A2 (11747474_a_at) / RFU ABCC12 (11746883_a_at) / Fold change /veh ABCC12 (11746883_a_at) / RFU TMEM136 (11760407_x_at) / Fold change /veh TMEM136 (11760407_x_at) / RFU CLDN22 /// WWC2 (11732394_at) / Fold change /veh CLDN22 /// WWC2 (11732394_at) / RFU HLA-DPB1 (11760878_x_at) / Fold change /veh HLA-DPB1 (11760878_x_at) / RFU SPINT1 (11716480_a_at) / Fold change /veh SPINT1 (11716480_a_at) / RFU GAP43 (11754022_s_at) / Fold change /veh GAP43 (11754022_s_at) / RFU A4GNT (11735810_at) / Fold change /veh A4GNT (11735810_at) / RFU PRB3 (11715151_x_at) / Fold change /veh PRB3 (11715151_x_at) / RFU TUBB4B (11761932_at) / Fold change /veh TUBB4B (11761932_at) / RFU CAPN14 (11732068_a_at) / Fold change /veh CAPN14 (11732068_a_at) / RFU TMCC2 (11721928_a_at) / Fold change /veh TMCC2 (11721928_a_at) / RFU IRGQ (11745062_a_at) / Fold change /veh IRGQ (11745062_a_at) / RFU FAM174B (11720279_a_at) / Fold change /veh FAM174B (11720279_a_at) / RFU TMPRSS4 (11748680_a_at) / Fold change /veh TMPRSS4 (11748680_a_at) / RFU FAM212B (11763350_a_at) / Fold change /veh FAM212B (11763350_a_at) / RFU PLEKHG5 (11743358_a_at) / Fold change /veh PLEKHG5 (11743358_a_at) / RFU ZSCAN30 (11745921_a_at) / Fold change /veh ZSCAN30 (11745921_a_at) / RFU CMKLR1 (11741424_a_at) / Fold change /veh CMKLR1 (11741424_a_at) / RFU LOC101060620 /// MAPK8IP1 (11723275_at) / Fold change /veh LOC101060620 /// MAPK8IP1 (11723275_at) / RFU SPTSSB (11747773_x_at) / Fold change /veh SPTSSB (11747773_x_at) / RFU PRSS12 (11739890_at) / Fold change /veh PRSS12 (11739890_at) / RFU BIN1 (11741810_x_at) / Fold change /veh BIN1 (11741810_x_at) / RFU WNT11 (11732464_a_at) / Fold change /veh WNT11 (11732464_a_at) / RFU C10orf10 (11716521_a_at) / Fold change /veh C10orf10 (11716521_a_at) / RFU C5orf56 (11738089_at) / Fold change /veh C5orf56 (11738089_at) / RFU CYB561 (11721691_x_at) / Fold change /veh CYB561 (11721691_x_at) / RFU ANKRD19P (11752326_a_at) / Fold change /veh ANKRD19P (11752326_a_at) / RFU OR2T12 /// OR2T33 /// OR2T8 (11738714_s_at) / Fold change /veh OR2T12 /// OR2T33 /// OR2T8 (11738714_s_at) / RFU VCAN (11748164_a_at) / Fold change /veh VCAN (11748164_a_at) / RFU JSRP1 (11732532_at) / Fold change /veh JSRP1 (11732532_at) / RFU KRTAP10-11 (11738290_x_at) / Fold change /veh KRTAP10-11 (11738290_x_at) / RFU MYO3A (11730013_a_at) / Fold change /veh MYO3A (11730013_a_at) / RFU EBF3 (11725865_a_at) / Fold change /veh EBF3 (11725865_a_at) / RFU CAMK2N1 (11719241_x_at) / Fold change /veh CAMK2N1 (11719241_x_at) / RFU C5orf56 (11738088_a_at) / Fold change /veh C5orf56 (11738088_a_at) / RFU OLFML3 (11715873_a_at) / Fold change /veh OLFML3 (11715873_a_at) / RFU LOC100653217 /// NTM (11731650_a_at) / Fold change /veh LOC100653217 /// NTM (11731650_a_at) / RFU MAPK11 (11762145_a_at) / Fold change /veh MAPK11 (11762145_a_at) / RFU FIZ1 (11724087_x_at) / Fold change /veh FIZ1 (11724087_x_at) / RFU OASL (11726364_x_at) / Fold change /veh OASL (11726364_x_at) / RFU SOX15 (11748057_x_at) / Fold change /veh SOX15 (11748057_x_at) / RFU CD79A (11719716_a_at) / Fold change /veh CD79A (11719716_a_at) / RFU HIST1H1D (11736915_at) / Fold change /veh HIST1H1D (11736915_at) / RFU CASKIN2 (11723855_a_at) / Fold change /veh CASKIN2 (11723855_a_at) / RFU LOC730098 (11760151_x_at) / Fold change /veh LOC730098 (11760151_x_at) / RFU OR4N2 (11742367_at) / Fold change /veh OR4N2 (11742367_at) / RFU PRRT2 (11749266_a_at) / Fold change /veh PRRT2 (11749266_a_at) / RFU SNX32 (11753110_a_at) / Fold change /veh SNX32 (11753110_a_at) / RFU CDHR5 (11726645_a_at) / Fold change /veh CDHR5 (11726645_a_at) / RFU RCAN1 (11760418_a_at) / Fold change /veh RCAN1 (11760418_a_at) / RFU FAM167A (11723789_a_at) / Fold change /veh FAM167A (11723789_a_at) / RFU FAM26E (11764081_at) / Fold change /veh FAM26E (11764081_at) / RFU ISYNA1 (11749810_s_at) / Fold change /veh ISYNA1 (11749810_s_at) / RFU ACY1 (11761880_at) / Fold change /veh ACY1 (11761880_at) / RFU 11764098_at / Fold change /veh 11764098_at / RFU SAMD14 (11745864_x_at) / Fold change /veh SAMD14 (11745864_x_at) / RFU NPB (11741838_a_at) / Fold change /veh NPB (11741838_a_at) / RFU TMPRSS6 (11731388_a_at) / Fold change /veh TMPRSS6 (11731388_a_at) / RFU KRTAP10-2 (11738614_at) / Fold change /veh KRTAP10-2 (11738614_at) / RFU ARHGAP8 /// PRR5-ARHGAP8 (11727945_x_at) / Fold change /veh ARHGAP8 /// PRR5-ARHGAP8 (11727945_x_at) / RFU KRTAP5-7 /// NADSYN1 (11734609_at) / Fold change /veh KRTAP5-7 /// NADSYN1 (11734609_at) / RFU RASL12 (11751679_a_at) / Fold change /veh RASL12 (11751679_a_at) / RFU CDKN2B (11736163_a_at) / Fold change /veh CDKN2B (11736163_a_at) / RFU PRF1 (11729649_at) / Fold change /veh PRF1 (11729649_at) / RFU, ZNF638 /// ZNF638-IT1 / Fold change vs veh, ZNF638 /// ZNF638-IT1 / RFU, PANK3 / Fold change vs veh, PANK3 / RFU, SH3YL1 / Fold change vs veh, SH3YL1 / RFU, ZEB2 / Fold change vs veh, ZEB2 / RFU, NRIP1 / Fold change vs veh, NRIP1 / RFU, PTTG1IP / Fold change vs veh, PTTG1IP / RFU, CAPN2 / Fold change vs veh, CAPN2 / RFU, MED14 / Fold change vs veh, MED14 / RFU, SNORA58 / Fold change vs veh, SNORA58 / RFU, C1orf63 / Fold change vs veh, C1orf63 / RFU, LRRFIP1 / Fold change vs veh, LRRFIP1 / RFU, NDUFAF7 / Fold change vs veh, NDUFAF7 / RFU, SLC12A2 / Fold change vs veh, SLC12A2 / RFU, IBTK / Fold change vs veh, IBTK / RFU, ESF1 / Fold change vs veh, ESF1 / Fold change vs veh, TMEM50B / RFU, TAOK1 / Fold change vs veh, TAOK1 / RFU, ACBD3 / Fold change vs veh, ACBD3 / RFU, TMA16 / Fold change vs veh, TMA16 / RFU, RWDD3 / Fold change vs veh, RWDD3 / RFU, BCAT1 / Fold change vs veh, BCAT1 / RFU, EDEM3 / Fold change vs veh, EDEM3 / RFU, TMEM33 / Fold change vs veh, TMEM33 / RFU, WDR75 / Fold change vs veh, WDR75 / RFU, AHCTF1 / Fold change vs veh, AHCTF1 / RFU, TFRC / Fold change vs veh, TFRC / RFU, ZDHHC17 / Fold change vs veh, ZDHHC17 / RFU, NOM1 / Fold change vs veh, NOM1 / RFU, ARL8B / Fold change vs veh, ARL8B / RFU, ZBTB11 / Fold change vs veh, ZBTB11 / RFU, TAMM41 / Fold change vs veh, TAMM41 / RFU, KIAA1704 /// LOC100996395 / Fold change vs veh, KIAA1704 /// LOC100996395 / RFU, ING1 / Fold change vs veh, ING1 / RFU, TRMT61B / Fold change vs veh, TRMT61B / RFU, FUBP3 / Fold change vs veh, FUBP3 / RFU, TP53 / Fold change vs veh, TP53 / RFU, TNKS2 / Fold change vs veh, TNKS2 / RFU, ZFP14 / Fold change vs veh, ZFP14 / RFU, ACTR2 / Fold change vs veh, ACTR2 / RFU, PPP3R1 / Fold change vs veh, PPP3R1 / RFU, PIK3R1 / Fold change vs veh, PIK3R1 / RFU, HNRNPA1 / Fold change vs veh, HNRNPA1 / RFU, RNF170 / Fold change vs veh, RNF170 / RFU, ZNF28 / Fold change vs veh, ZNF28 / RFU, RNGTT / Fold change vs veh, RNGTT / RFU, OGT / Fold change vs veh, OGT / RFU, BRD1 / Fold change vs veh, BRD1 / RFU, MARS / Fold change vs veh, MARS / RFU, ZNF655 / Fold change vs veh, ZNF655 / RFU, FAHD1 / Fold change vs veh, FAHD1 / RFU, BDP1 / Fold change vs veh, BDP1 / RFU, LRRCC1 / Fold change vs veh, LRRCC1 / RFU, ARID1A / Fold change vs veh, ARID1A / RFU, ZNF146 / Fold change vs veh, ZNF146 / RFU, ZNF330 / Fold change vs veh, ZNF330 / RFU, GPN3 / Fold change vs veh, GPN3 / RFU, C9orf123 / Fold change vs veh, C9orf123 / RFU, N4BP2L2 / Fold change vs veh, N4BP2L2 / RFU, ARFIP1 / Fold change vs veh, ARFIP1 / RFU, FAM179B / Fold change vs veh, FAM179B / RFU, BCL10 / Fold change vs veh, BCL10 / RFU, UHRF1BP1L / Fold change vs veh, UHRF1BP1L / RFU, BET1 / Fold change vs veh, BET1 / RFU, CNOT2 / Fold change vs veh, CNOT2 / RFU, ZNF268 / Fold change vs veh, ZNF268 / Fold change vs veh, ZNF507 / RFU, DGCR2 / Fold change vs veh, DGCR2 / RFU, WDSUB1 / Fold change vs veh, WDSUB1 / Fold change vs veh, HSP90B1 /// MIR3652 / RFU, ADSS / Fold change vs veh, ADSS / RFU, GK / Fold change vs veh, GK / RFU, ZNF148 / Fold change vs veh, ZNF148 / RFU, TAF9 / Fold change vs veh, TAF9 / RFU, SLC1A5 / Fold change vs veh, SLC1A5 / RFU, SLMO2 / Fold change vs veh, SLMO2 / RFU, ABCC4 / Fold change vs veh, ABCC4 / RFU, LOC101060439 /// RAP1B / Fold change vs veh, LOC101060439 /// RAP1B / RFU, RFX7 / Fold change vs veh, RFX7 / RFU, GTPBP10 / Fold change vs veh, GTPBP10 / RFU, CNEP1R1 / Fold change vs veh, CNEP1R1 / RFU, BIVM-ERCC5 /// ERCC5 / Fold change vs veh, BIVM-ERCC5 /// ERCC5 / RFU, ILF3 / Fold change vs veh, ILF3 / RFU 11762660_at / Fold change /veh 11762660_at / RFU VCAN (11757783_s_at) / Fold change /veh VCAN (11757783_s_at) / RFU DDX43 (11728927_at) / Fold change /veh DDX43 (11728927_at) / RFU KRT8 (11758188_x_at) / Fold change /veh KRT8 (11758188_x_at) / RFU NKD1 (11759106_at) / Fold change /veh NKD1 (11759106_at) / RFU SRD5A1 (11742802_a_at) / Fold change /veh SRD5A1 (11742802_a_at) / RFU TPSAB1 /// TPSB2 (11721975_s_at) / Fold change /veh TPSAB1 /// TPSB2 (11721975_s_at) / RFU GSTM3 (11746129_a_at) / Fold change /veh GSTM3 (11746129_a_at) / RFU IL23R (11737362_x_at) / Fold change /veh IL23R (11737362_x_at) / RFU TMEM51 (11727254_a_at) / Fold change /veh TMEM51 (11727254_a_at) / RFU PIWIL2 (11732686_x_at) / Fold change /veh PIWIL2 (11732686_x_at) / RFU ORM1 (11744905_x_at) / Fold change /veh ORM1 (11744905_x_at) / RFU CCDC152 (11743942_at) / Fold change /veh CCDC152 (11743942_at) / RFU ECM1 (11717891_a_at) / Fold change /veh ECM1 (11717891_a_at) / RFU IL23R (11748794_a_at) / Fold change /veh IL23R (11748794_a_at) / RFU TNFAIP8L3 (11732012_x_at) / Fold change /veh TNFAIP8L3 (11732012_x_at) / RFU MBOAT4 (11741988_at) / Fold change /veh MBOAT4 (11741988_at) / RFU 11764193_at / Fold change /veh 11764193_at / RFU TMEM53 (11763286_at) / Fold change /veh TMEM53 (11763286_at) / RFU MAGEB2 (11727129_at) / Fold change /veh MAGEB2 (11727129_at) / RFU TMEM200A (11744735_a_at) / Fold change /veh TMEM200A (11744735_a_at) / RFU CCDC152 (11751479_a_at) / Fold change /veh CCDC152 (11751479_a_at) / RFU FAM211A (11726209_a_at) / Fold change /veh FAM211A (11726209_a_at) / RFU RGS16 (11746705_a_at) / Fold change /veh RGS16 (11746705_a_at) / RFU VCAN (11755009_s_at) / Fold change /veh VCAN (11755009_s_at) / RFU RHOB (11743442_s_at) / Fold change /veh RHOB (11743442_s_at) / RFU RGS16 (11720943_a_at) / Fold change /veh RGS16 (11720943_a_at) / RFU RGS16 (11720944_at) / Fold change /veh RGS16 (11720944_at) / RFU, VPS4B / Fold change vs veh, VPS4B / RFU, CREB1 / Fold change vs veh, CREB1 / RFU, DNAJC13 / Fold change vs veh, DNAJC13 / RFU, GNAQ / Fold change vs veh, GNAQ / RFU, CDK5R1 / Fold change vs veh, CDK5R1 / RFU, ZRANB3 / Fold change vs veh, ZRANB3 / RFU, CUL4A / Fold change vs veh, CUL4A / RFU, CCNY / Fold change vs veh, CCNY / RFU, UFL1 / Fold change vs veh, UFL1 / RFU, COG3 / Fold change vs veh, COG3 / RFU, DIAPH2 / Fold change vs veh, DIAPH2 / RFU, SKA2 / Fold change vs veh, SKA2 / RFU, AFF3 / Fold change vs veh, AFF3 / RFU, LMF1 / Fold change vs veh, LMF1 / RFU, IPO11 / Fold change vs veh, IPO11 / RFU, DFFB / Fold change vs veh, DFFB / RFU, FOXP1 / Fold change vs veh, FOXP1 / RFU, CARD8 / Fold change vs veh, CARD8 / RFU, STRN3 / Fold change vs veh, STRN3 / RFU, ADK / Fold change vs veh, ADK / RFU, RASSF2 / Fold change vs veh, RASSF2 / RFU, WIPF1 / Fold change vs veh, WIPF1 / RFU, LARP1B / Fold change vs veh, LARP1B / RFU, RASA1 / Fold change vs veh, RASA1 / RFU, RB1 / Fold change vs veh, RB1 / RFU, PPFIA1 / Fold change vs veh, PPFIA1 / RFU, MAT2A / Fold change vs veh, MAT2A / RFU, CCT5 / Fold change vs veh, CCT5 / RFU, WDR92 / Fold change vs veh, WDR92 / RFU, CUX1 / Fold change vs veh, CUX1 / RFU, TTC7A / Fold change vs veh, TTC7A / RFU, TMEM135 / Fold change vs veh, TMEM135 / RFU, DEPTOR / Fold change vs veh, DEPTOR / RFU, CPM / Fold change vs veh, CPM / RFU, DNAJB6 / Fold change vs veh, DNAJB6 / RFU, CACNA2D3 / Fold change vs veh, CACNA2D3 / RFU, DTX4 / Fold change vs veh, DTX4 / RFU, TFCP2 / Fold change vs veh, TFCP2 / RFU, GMCL1 /// GMCL1P1 / Fold change vs veh, GMCL1 /// GMCL1P1 / RFU, AEBP2 / Fold change vs veh, AEBP2 / RFU, SNHG1 /// SNORD22 /// SNORD25 /// SNORD26 /// SNORD27 /// SNORD28 /// SNORD29 /// SNORD31 / Fold change vs veh, SNHG1 /// SNORD22 /// SNORD25 /// SNORD26 /// SNORD27 /// SNORD28 /// SNORD29 /// SNORD31 / Fold change (Aza/veh), C12orf56 (ProbeSet 11735607_a_at) / Fold change (ACY-1035/veh), C12orf56 (ProbeSet 11735607_a_at) / Fold change (Aza/veh), FGFR1OP (ProbeSet 11751329_s_at) / Fold change (ACY-1035/veh), FGFR1OP (ProbeSet 11751329_s_at) / Fold change (Aza/veh), VPS36 (ProbeSet 11739960_a_at) / Fold change (ACY-1035/veh), VPS36 (ProbeSet 11739960_a_at) / RFU SYPL1 (11715823_x_at) / Fold change /veh SYPL1 (11715823_x_at) / RFU IGFBP7 (11715501_s_at) / Fold change /veh IGFBP7 (11715501_s_at) / RFU REEP3 (11722064_at) / Fold change /veh REEP3 (11722064_at) / RFU IGLL1 (11728026_x_at) / Fold change /veh IGLL1 (11728026_x_at): dose or concentration left out as unconfirmed
Details: ProbeSet 11718977_a_at; LIST B

Nc1ccc(-c2cccs2)cc1NC(=O)c1ccc2c(c1)cc(C1CC1)n2CCN1CCOCC1 [ACY-1035]
Fold change vs veh, CAPN2: 0.88
